According to patent publication US20150259300A1, “4-(ORTHO)-FLUOROPHENYL-5-FLUOROPYRIMIDIN-2-YL AMINES CONTAINING A SULFONE GROUP” (BAYER PHARMA AKTIENGESELLSCHAFT, priority 2012, published 2015):

How the values were obtained:
CDK9/CycT1 = biological target: T1, CDK9/CycT1 (Homo sapiens, UniProt P50750); assay: CDK9/CycT1 kinase assay (TR-FRET, Method 1a); assay type: biochemical; conditions: for IC50: Method 1a, 10 μM ATP; for Selectivity CDK9/CDK2: derived from Methods 1a. and 2.
T1 construct: Recombinant full-length His-tagged human CDK9 and CycT1; His; purchased Invitrogen PV4131; host or cells: insect cells
Excerpt: 1a. CDK9/CyeT1 Kinase Assay:
CDK9/CycT1-inhibitory activity of compounds of the present invention was quantified employing the CDK9/CycT1 TR-FRET assay as described in the following paragraphs:
Recombinant full-length His-tagged human CDK9 and CycT1, expressed in insect cells and purified by Ni-NTA affinity chromatography, were purchased from Invitrogen (Cat. No PV4131). As substrate for the kinase reaction biotinylated peptide biotin-Ttds-YISPLKSPYKISEG (C-terminus in amid form) was used which can be purchased e.g. form the company JERINI Peptide Technologies (Berlin, Germany). For the assay 50 nl of a 100 fold concentrated solution of the test compound in DMSO was pipetted into a black low volume 384 well microtiter plate (Greiner Bio-One, Frickenhausen, Germany), 2 μl of a solution of CDK9/CycT1 in aqueous assay buffer [50 mM Tris/HCl pH 8.0, 10 mM MgCl2, 1.0 mM dithiothreitol, 0.1 mM sodium ortho-vanadate, 0.01% (v/v) Nonidet-P40 (Sigma)] were added and the mixture was incubated for 15 min at 22° C. to allow pre-binding of the test compounds to the enzyme before the start of the kinase reaction. Then the kinase reaction was started by the addition of 3 μl of a solution of adenosine-tri-phosphate (ATP, 16.7 μM=>final conc. in the 5 μl assay volume is 10 μM) and substrate (1.67 μM=>final conc. in the 5 μl assay volume is 1 μM) in assay buffer and the resulting mixture was incubated for a reaction time of 25 min at 22° C. The concentration of CDK9/CycT1 was adjusted depending of the activity of the enzyme lot and was chosen appropriate to have the assay in the linear range, typical concentrations were in the range of 1 μg/ml. The reaction was stopped by the addition of 5 μl of a solution of TR-FRET detection reagents (0.2 μM streptavidine-XL665 [Cisbio Bioassays, Codolet, France] and 1 nM anti-RB(pSer807/pSer811)-antibody from BD Pharmingen [#558389] and 1.2 nM LANCE EU-W1024 labeled anti-mouse IgG antibody [Perkin-Elmer, product no. AD0077]) in an aqueous EDTA-solution (100 mM EDTA, 0.2% (w/v) bovine serum albumin in 100 mM HEPES/NaOH pH 7.0).
(§1) The resulting mixture was incubated 1 h at 22° C. to allow the formation of complex between the phosphorylated biotinylated peptide and the detection reagents. Subsequently the amount of phosphorylated substrate was evaluated by measurement of the resonance energy transfer from the Eu-chelate to the streptavidine-XL. Therefore, the fluorescence emissions at 620 nm and 665 nm after excitation at 350 nm was measured in a HTRF reader, e.g. a Rubystar (BMG Labtechnologies, Offenburg, Germany) or a Viewlux (Perkin-Elmer). The ratio of the emissions at 665 nm and at […] was taken as the measure for the amount of phosphorylated substrate. The data were normalised (enzyme reaction without inhibitor=0% inhibition, all other assay components but no enzyme=100% inhibition).

CDK2/CycE = biological target: T2, CDK2/CycE (Homo sapiens, UniProt P24941); assay: CDK2/CycE kinase assay (TR-FRET, Method 2); assay type: biochemical; conditions: Method 2, 10 μM ATP
T2 construct: GST; purchased ProQinase GmbH (Freiburg, Germany); host or cells: insect cells (Sf9)
Excerpt: 2. CDK2/CycE Kinase Assay:
CDK2/CycE -inhibitory activity of compounds of the present invention was quantified employing the CDK2/CycE TR-FRET assay as described in the following paragraphs:
Recombinant fusion proteins of GST and human CDK2 and of GST and human CycE, expressed in insect cells (Sf9) and purified by Glutathion-Sepharose affinity chromatography, were purchased from ProQinase GmbH (Freiburg, Germany). As substrate for the kinase reaction biotinylated peptide biotin-Ttds-YISPLKSPYKISEG (C-terminus in amid form) was used which can be purchased e.g. form the company JERINI Peptide Technologies (Berlin, Germany).
For the assay 50 nl of a 100 fold concentrated solution of the test compound in DMSO was pipetted into a black low volume 384 well microtiter plate (Greiner Bio-One, Frickenhausen, Germany), 2 μl of a solution of CDK2/CycE in aqueous assay buffer [50 mM Tris/HCl pH 8.0, 10 mM MgCl2, 1.0 mM dithiothreitol, 0.1 mM sodium ortho-vanadate, 0.01% (v/v) Nonidet-P40 (Sigma)] were added and the mixture was incubated for […] at 22° C. to allow pre-binding of the test compounds to the enzyme before the start of the kinase reaction. Then the kinase reaction was started by the addition of 3 μl of a solution of adenosine-tri-phosphate (ATP, 16.7 μM=>final conc. in the 5 μl assay volume is 10 μM) and substrate (1.25 μM=>final conc. in the 5 μl assay volume is 0.75 μM) in assay buffer and the resulting mixture was incubated for a reaction time of […] at 22° C. The concentration of CDK2/CycE was adjusted depending of the activity of the enzyme lot and was chosen appropriate to have the assay in the linear range, typical concentrations were in the range of 130 ng/ml. The reaction was stopped by the addition of 5 μl of a solution of TR-FRET detection reagents (0.2 μM streptavidine-XL665 [Cisbio Bioassays, Codolet, France] and 1 nM anti-RB(pSer807/pSer811)-antibody from BD Pharmingen [#558389] and 1.2 nM LANCE EU-W1024 labeled anti-mouse IgG antibody [Perkin-Elmer, product no. AD0077]) in an aqueous EDTA-solution (100 mM EDTA, 0.2% (w/v) bovine serum albumin in 100 mM HEPES/NaOH pH 7.0).
as §1, with “TR-FRET” for “HTRF”

T1 sequence (P50750 whole entry): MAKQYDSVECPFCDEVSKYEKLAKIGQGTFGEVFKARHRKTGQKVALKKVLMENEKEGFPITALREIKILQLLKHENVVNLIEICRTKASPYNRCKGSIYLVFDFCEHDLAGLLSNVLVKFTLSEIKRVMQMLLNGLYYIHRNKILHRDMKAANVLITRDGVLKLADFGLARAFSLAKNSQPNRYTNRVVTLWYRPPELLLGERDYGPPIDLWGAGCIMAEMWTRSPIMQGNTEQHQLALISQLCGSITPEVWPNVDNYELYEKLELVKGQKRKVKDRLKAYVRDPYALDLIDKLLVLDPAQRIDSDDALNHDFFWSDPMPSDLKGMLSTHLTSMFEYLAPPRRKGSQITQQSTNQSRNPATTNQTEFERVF
T1 sequence (O60563 whole entry partner): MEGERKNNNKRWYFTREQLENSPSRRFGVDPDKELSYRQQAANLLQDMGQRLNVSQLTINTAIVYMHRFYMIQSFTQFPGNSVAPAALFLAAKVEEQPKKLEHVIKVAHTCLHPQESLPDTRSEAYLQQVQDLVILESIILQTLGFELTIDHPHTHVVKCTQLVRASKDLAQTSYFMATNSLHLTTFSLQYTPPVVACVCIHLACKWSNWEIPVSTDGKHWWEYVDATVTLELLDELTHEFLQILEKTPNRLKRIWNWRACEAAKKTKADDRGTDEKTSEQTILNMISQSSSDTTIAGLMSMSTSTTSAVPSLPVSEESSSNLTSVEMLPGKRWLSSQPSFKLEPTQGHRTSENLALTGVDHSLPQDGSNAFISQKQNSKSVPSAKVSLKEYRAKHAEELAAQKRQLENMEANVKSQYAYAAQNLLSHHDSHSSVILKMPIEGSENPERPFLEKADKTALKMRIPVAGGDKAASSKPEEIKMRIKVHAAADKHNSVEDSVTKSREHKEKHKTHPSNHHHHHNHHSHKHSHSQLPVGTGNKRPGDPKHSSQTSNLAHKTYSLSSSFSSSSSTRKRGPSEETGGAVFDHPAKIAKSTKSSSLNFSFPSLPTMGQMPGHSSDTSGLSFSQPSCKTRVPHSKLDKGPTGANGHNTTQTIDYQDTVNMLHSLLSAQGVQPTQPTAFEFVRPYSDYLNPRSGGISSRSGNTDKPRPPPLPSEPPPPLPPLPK

Row | IC50 (CDK9/CycT1) [nM] | Selectivity CDK9/CDK2 (CDK9/CycT1) | IC50 (CDK2/CycE) [nM] | Structure (SMILES)
1 | 130 | 28 | 5800 | CS(=O)(=O)Cc1cc(F)cc(Nc2ncc(F)c(-c3ccc(F)cc3F)n2)c1 [Example 10, 4-(2,4-Difluorophenyl)-5-fluoro-N-{3-fluoro-5-[(methylsulfonyl)methyl]phenyl}pyrimidin-2-amine]
2 | 25 | 14 | 350 | CS(=O)(=O)Cc1cc(F)cc(Nc2ncc(F)c(-c3ccc(F)c(F)c3F)n2)c1 [Example 12, 5-fluoro-N-{3-fluoro-5-[(methylsulfonyl)methyl]phenyl}-4-(2,3,4-trifluorophenyl)pyrimidin-2-amine]
3 | 130 | 20 | 2600 | COCCS(=O)(=O)Cc1cccc(Nc2ncc(F)c(-c3ccc(F)cc3F)n2)c1 [Example 4, 4-(2,4-Difluorophenyl)-5-fluoro-N-(3-{[(2-methoxyethyl)sulfonyl]methyl}phenyl)pyrimidin-2-amine]
4 | 39 | 15 | 570 | CCCS(=O)(=O)Cc1cccc(Nc2ncc(F)c(-c3ccc(F)cc3F)n2)c1 [Example 8, 4-(2,4-difluorophenyl)-5-fluoro-N-{3-[(propylsulfonyl)methyl]phenyl}pyrimidin-2-amine]
5 | 50 | 24 | 1200 | CC(C)S(=O)(=O)Cc1cccc(Nc2ncc(F)c(-c3ccc(F)cc3F)n2)c1 [Example 2, 4-(2,4-Difluorophenyl)-5-fluoro-N-{3-[(propan-2-ylsulfonyl)methyl]phenyl}pyrimidin-2-amine]
6 | 74 | >270 | > 20000 | CS(=O)(=O)Cc1cc(F)cc(Nc2ncc(F)c(-c3cc(F)c(F)cc3F)n2)c1 [Example 11, 5-Fluoro-N-{3-fluoro-5-[(methylsulfonyl)methyl]phenyl}-4-(2,4,5-trifluorophenyl)pyrimidin-2-amine]
7 | 13 | 32 | 410 | O=S(=O)(Cc1cccc(Nc2ncc(F)c(-c3ccc(F)cc3F)n2)c1)C1CC1 [Example 9, N-{3-[(Cyclopropylsulfonyl)methyl]phenyl}-4-(2,4-difluorophenyl)-5-fluoropyrimidin-2-amine]
8 | 14 | 122 | 1760 | CS(=O)(=O)Cc1cc(Nc2ncc(F)c(-c3ccc(F)cc3F)n2)cc(S(F)(F)(F)(F)F)c1 [Example 6, 4-(2,4-Difluorophenyl)-5-fluoro-N-{3-[(methylsulfonyl)methyl]-5-(pentafluoro-λ^6-sulfanyl)phenyl}pyrimidin-2-amine]
9 | 110 | 10 | 1000 | CC(C)(C)S(=O)(=O)Cc1cccc(Nc2ncc(F)c(-c3ccc(F)cc3F)n2)c1 [Example 3, N-{3-[(tert-Butylsulfonyl)methyl]phenyl}-4-(2,4-difluorophenyl)-5-fluoropyrimidin-2-amine]
10 | 51 | 9.1 | 470 | CS(=O)(=O)Cc1cccc(Nc2ncc(F)c(-c3ccc(F)cc3F)n2)c1 [Example 5, 4-(2,4-Difluorophenyl)-5-fluoro-N-{3-[(methylsulfonyl)methyl]phenyl}pyrimidin-2-amine]
11 | 13 | 44 | 580 | CCCS(=O)(=O)Cc1cc(F)cc(Nc2ncc(F)c(-c3ccc(F)cc3F)n2)c1 [Example 13, 4-(2,4-Difluorophenyl)-5-fluoro-N-{3-fluoro-5-[(propylsulfonyl)methyl]phenyl}pyrimidin-2-amine]
